US11236049B2, “Amorphous and crystalline forms of IDO inhibitors” (BRISTOL-MYERS SQUIBB COMPANY, priority 2017, dated 2022)
Values joined by “and” are separate entries in the source; they are usually repeats but may differ in a detail not shown here. Identical values can stand only once. Like-named read-outs stand apart in the source and are kept apart here.

Experiments:
[1] = pH solubility of Compound 1 MSA Salt Form 1; format: physicochemical
Protocol: Measurements were taken using an Orion ATI Model 370 pH meter. […] To each vial was added 5 mL of various aqueous acidic and basic solutions. Each vial was stoppered and vortexed and sonicated to mix well. The pH of each sample was recorded. […] After 24 hours of stirring, the pH of each sample (as a suspension) was recorded. Suspensions were filtered with 0.2 micron Acrodisc syringe filters. The clear filtrates were collected and vortexed to mix well pH of each filtrated was recorded. pH of suspension and filtrate were nearly identical. A 1.0 mL aliquot of each of the filtrates 25-fold using 50% acetonitrile/50% Milli-Q water, q.w. each flask to 25 mL. […] Samples were assayed using the following HPLC method: Column: […] Mobile phase Solvent A: Water w/0.05% TFA • Solvent B: Acetonitrile w/0.05% TFA […] Column temperature: Ambient RT Detector Wavelength: 250 nm […] Working Concentration: […] Added 20 mL of 100% acetonitrile to the vial. Stoppered, vortexed, and sonicated the vial. […] Transferred the suspension to a 250 mL glass volumetric flask, and washed out the glass vial with 4×20 mL 50% acetonitrile/50% Milli-Q water, transferring each wash into the volumetric flask. All solids dissolved. Q.S. the volumetric flask to 250 mL final volume using 50% acetonitrile/50% Milli Q water, shake to give standard solution at 101.5 mcg/mL.

[2] = for AUC (Mean) / Dissolution Rate (Mean): 150 mg in 250 mL (0.60 mg/mL API equivalent), 37° C.
Protocol: Microdissolution Microdissolution experiments were conducted in a pIon μDiss Profiler microdissolution instrument (pION μDiss Profiler) with a fiber optic UV monitoring system, as follows: Probes: 2.5 mm probes (5 mm path length) Volume: 15 ml Stirring: 150 rpm Temperature: 37° C. […] The target doses were 150 mg in 250 mL (0.60 mg/mL API equivalent) in FaSSIF (pH 6.5) and FeSSIF (pH 5).

[3] = Jet milling: milled physical properties; format: physicochemical
Text: Particle size reduction can be achieved by jet milling using a 0202 Jet o Mizer loop Mill. Particle collisions are enabled by nitrogen gas supplied at high pressure to the milling chamber via two grinding nozzles. The feed rate of the drug substance into the mill is controlled by a feeder that supplies drug substance into the feed hopper of the mill at a visually consistent feed rate. High pressure nitrogen gas is supplied through the venturi nozzle to inject drug substance from the mill feed hopper into the milling chamber, and this is referred to as the venture pressure. The grinding and venturi pressures are adjusted to the desired level before the start of milling, and both are kept at the same level unless product blow back from the feed hopper is observed. The venturi pressure is typically adjusted to 10 PSI above the grinding pressure. The micronized drug substance exits via the mill chamber outlet to be collected in the product collection unit consisting of a combined cyclone and porous fabric filter media assembly. Milling parameters may be adjusted based on sample analysis. Particle sizes that range between 12.7 μm and 24.0 μm (D90 by laser-light scattering) are achieved from the milling operation.

[4] = in vivo
[5] = format: physicochemical
Protocol: Stability Testing Chromatographic Conditions: VHPLC Parameters VHPLC System: Waters AcQuity BSM or […] system equipped with a Waters UV/Vis Detector Column: Ascentis Express C18, 150 mm×2.1 mm i.d., 2.7 um particle size. Detector Wavelength: 218 nm VHPLC detector time constrat: normal VHPLC sampling rate: 20 Hz […] Flow Rate: 0.5 mL/min Injection volume 1 uL Column temperature: 30° C. Run time: 14 minutes Sample temperature: 5° C. Mobile Phase A: water:acetonitrile:TFA (95:5:0.05) Mobile Phase B: water: acetonitrile:TFA (5:95:0.05) [table] […] The study consisted of one batch of drug substance packaged in double LDPE bags, placed in a 0.6 L HDPE paid with a lid and gasket.

[6] = No. 1 Long Term, 5° C., 1 month
[7] = No. 1 Long Term, 5° C., 3 months
[8] = No. 1 Long Term, 5° C., 6 months
[9] = No. 1 Long Term, 5° C., 12 months
[10] = No. 2 Long Term, 25° C./60% RH, 1 month
[11] = No. 2 Long Term, 25° C./60% RH, 3 months
[12] = No. 2 Long Term, 25° C./60% RH, 6 months
[13] = No. 2 Long Term, 25° C./60% RH, 12 months
[14] = No. 3 Accelerated, 40° C./75% RH, 1 month
[15] = No. 3 Accelerated, 40° C./75% RH, 2 weeks
[16] = No. 3 Accelerated, 40° C./75% RH, 3 months
[17] = No. 3 Accelerated, 40° C./75% RH, 6 months
[18] = No. 5 Stress, 40° C./75% RH exposed, 1 month
[19] = No. 5 Stress, 40° C./75% RH exposed, 2 weeks
[20] = No. 5 Stress, 40° C./75% RH exposed, 3 months
[21] = No. 5 Stress, 40° C./75% RH exposed, 6 months
[22] = No. 7 Stress, 25° C./HIL/UVA Exposed, 2 weeks
[23] = No. 7 Stress, 25° C./HIL/UVA Exposed, 4 days
[24] = No. 7 Stress, 25° C./HIL/UVA protected, 2 weeks
[25] = No. 7 Stress, 25° C./HIL/UVA protected, 4 days

CS(=O)(=O)O.C[C@@H](C(=O)Nc1ccc(Cl)cc1)[C@H]1CC[C@@H](c2ccnc3ccc(F)cc32)CC1 [Compound 1 MSA Salt Form 1, (R)-N-(4-chlorophenyl)-2-((1S,4S)-4-(6-fluoroquinolin-4-yl)cyclohexyl)propanamide methanesulfonate]
Solubility ([1]; pH 0.49): 0.024 mg/mL | Solubility ([1]; pH 1.01): 0.073 mg/mL | Solubility ([1]; pH 2.46): 0.147 mg/mL | Solubility ([1]; pH 2.7): 0.085 mg/mL | Solubility ([1]; pH 3.14): 0.018 mg/mL | Solubility ([1]; pH 3.61): 0.003 mg/mL | Solubility ([1]; pH 4.53): 0.001 mg/mL | Solubility ([1]; pH 6.82): 0.001 mg/mL | Solubility ([1]; pH 7): 0.096 mg/mL | Solubility ([1]; pH 9.68): 0.002 mg/mL | rate and extent of dissolution compared to an amorphous form or HCl salts (amorphous and crystalline) ([2]; Example 14, FIG. 7, both FeSSiF and FaSSiF, simulated 150 mg human dose): faster rate and extent of dissolution | rate and extent of dissolution compared to Compound 1 free base (amorphous) ([2]; Example 14, FIG. 8, FaSSIF and FeSSIF at 0.2 mg/mL): faster rate and extent of dissolution | rate of dissolution ([2]; Example 16, FeSSIF): 38 µg/mL/min | AUC (Mean) ([2]; FaSSIF (pH 6.5)): 14988.073 µg·min/mL | Dissolution Rate (Mean) ([2]; FaSSIF (pH 6.5)): 2.460 µg/mL/min | AUC (Mean) ([2]; FeSSIF (pH 5)): 46410.396 µg·min/mL | Dissolution Rate (Mean) ([2]; FeSSIF (pH 5)): 38.850 µg/mL/min | Peak Solubility (Mean) ([2]; pH 5): 0.271564 mg/mL | Peak Solubility (Mean) ([2]; pH 6.5): 0.100877 mg/mL | Bulk density ([3]; for sample with D90 of 22.3 μm): 0.193 g/mL | D50 ([3]; range from 0202 Jet Mill): 6.2-9.8 μm | Surface area ([3]; range from 0202 Jet Mill): 2.08-3.63 m^2/g | D90 ([3]; range from 0202 Jet Mill, laser-light scattering): 12.7-24.0 μm | oral bioavailability [4]: increased oral bioavailability | photostability study conclusion [5]: does not need to be protected from light | Assay “as is” [5, 6]: 81.9% | Assay “corrected” [5, 6]: 100.5% | Assay “as is” [5, 7]: 82.4% | Assay “corrected” [5, 7]: 101.1% | Assay “as is” [5, 8]: 81.2% | Assay “corrected” [5, 8]: 99.6% | Assay “as is” [5, 9]: 81.7% | Assay “corrected” [5, 9]: 100.5% | Assay “as is” [5, 10]: 82.1% | Assay “corrected” [5, 10]: 100.8% | Assay “as is” [5, 11]: 81.7% | Assay “corrected” [5, 11]: 100.4% | Assay “as is” [5, 12]: 81.2% | Assay “corrected” [5, 12]: 99.7% | Assay “as is” [5, 13]: 81.1% | Assay “corrected” [5, 13]: 99.8% | Assay “as is” [5, 14]: 82.3% | Assay “corrected” [5, 14]: 101.0% | Assay “as is” [5, 15]: 80.7% | Assay “corrected” [5, 15]: 99.1% | Assay “as is” [5, 16]: 81.5% | Assay “corrected” [5, 16]: 100.1% | Assay “as is” [5, 17]: 81.8% | Assay “corrected” [5, 17]: 100.4% | Assay “as is” ([5]; No. 4 Stress, −20° C., 1 month): 82.4% | Assay “corrected” ([5]; No. 4 Stress, −20° C., 1 month): 101.1% | Assay “as is” [5, 18]: 81.6% | Assay “corrected” [5, 18]: 100.3% | Assay “as is” [5, 19]: 80.9% | Assay “corrected” [5, 19]: 99.3% | Assay “as is” [5, 20]: 81.4% | Assay “corrected” [5, 20]: 99.9% | Assay “as is” [5, 21]: 80.3% | Assay “corrected” [5, 21]: 98.6% | Assay “as is” ([5]; No. 6 Stress, 50° C., 1 month): 82.0% | Assay “corrected” ([5]; No. 6 Stress, 50° C., 1 month): 100.7% | Assay “as is” ([5]; No. 6 Stress, 50° C., 2 weeks): 80.8% | Assay “corrected” ([5]; No. 6 Stress, 50° C., 2 weeks): 99.2% | Assay “as is” ([5]; No. 6 Stress, 50° C., 3 months): 82.2% | Assay “corrected” ([5]; No. 6 Stress, 50° C., 3 months): 100.9% | Assay “as is” [5, 22]: 78.7% | Assay “corrected” [5, 22]: 96.8% | Assay “as is” [5, 23]: 80.8% | Assay “corrected” [5, 23]: 99.2% | Assay “as is” [5, 24]: 80.4% | Assay “corrected” [5, 24]: 98.7% | Assay “as is” [5, 25]: 81.1% | Assay “corrected” [5, 25]: 99.5% | storage time remained stable ([5]; accelerated condition of 40° C./75% RH): ≥ 6 months | changes in XRD pattern ([5]; after any of the study numbers): No changes | change in total impurities on light exposure ([5]; approximately 3.5 times the minimum ICH exposure): slight increase | Color and appearance (white or off-white powder or powder with lumps) ([5]; during the studies): maintained | 4-chloroaniline (impurity) ([5]; initial): 0.09% | enantiomeric impurity of Compound 1 ([5]; initial): < 0.05% | total impurities ([5]; initial): 0.57% | water content ([5]; initial): < 0.1 % w/w | Assay “as is” ([5]; initial (average of 2 results)): 79.0% and 79.0^1% | Assay “corrected” ([5]; initial (average of 2 results)): 97.0% and 97.0^1% | storage time remained stable ([5]; long-term conditions of 5° C. and 25° C./60% relative humidity (RH)): at least 12 months | changes on light exposure ([5]; minimum ICH Q1B exposure): Essentially no changes | storage time remained stable ([5]; stress condition of 50° C.): ≥ 3 months | total impurities ([5]; study number 3): 0.48% | total impurities ([5]; study number 6): 0.50% | changes in assay “as is” or “corrected” from initial ([5]; study numbers 1, 2, 3, and 5): Essentially no changes | changes in enantiomeric impurity ([5]; study numbers 1 and 2): No changes | changes in water content ([5]; study numbers 1 and 2): Essentially no changes | 4-chloroaniline (impurity) ([5]; study numbers 3 and 6 (both conditions)): < 0.05% | changes in total impurities from initial ([5]; study numbers 4, 1, 2, and 3): Essentially no changes
